Measurements from patent US6924276B2, “Diacid-substituted heteroaryl derivatives as matrix metalloproteinase inhibitors” (Warner-Lambert Company, priority 2001, dated 2005).

Legend:
[1] = biological target: MMP-13CD (catalytic domain of collagenase-3) (Homo sapiens, UniProt P45452); experiment: thiopeptolide substrate hydrolysis assay, MMP-13CD; assay type: biochemical
Excerpt: (§1) The invention compounds of Formula I have been evaluated in standard assays for their ability to inhibit the activity of various MMP enzymes. The assays used to evaluate the biological activity of the invention compounds are well known and routinely used by those skilled in the study of MMP inhibitors and their use to treat clinical conditions.
(§2) Such assays are described in detail by Ye et al., in Biochemistry, 1992;31(45):11231-11235, which is incorporated herein by reference.
(§3) Thiopeptolide substrates show virtually no decomposition or hydrolysis in the absence of a matrix metalloproteinase enzyme. A typical thiopeptolide substrate commonly utilized for assays is Ac-Pro-Leu-Gly-thioester;-Leu-Leu-Gly-OEt. A 100 μL assay mixture will contain 50 mM of 2-morpholinoethane sulfonic acid monohydrate (MES, pH 6.0) 10 mM CaCl2, 100 μM thiopeptolide substrate, and 1 mM 5,5′-dithio-bis-(2-nitro-benzoic acid) (DTNB). The thiopeptolide substrate concentration is varied from 10 to 800 μM to obtain Km and Kcat values. The change in absorbance at 405 nm is monitored on a Thermo Max microplate reader (Molecular Devices, Menlo Park, Calif.) at room temperature (22° C.). The calculation of the amount of hydrolysis of the thiopeptolide substrate is based on E412=13600 m^−1 cm^−1 for the DTNB-derived product 3-carboxy-4-nitrothiophenoxide. Assays are carried out with and without matrix metalloproteinase inhibitor compounds, and the amount of hydrolysis is compared for a determination of inhibitory activity of the test compounds.
Several representative compounds have been evaluated for their ability to inhibit various matrix metalloproteinase enzymes. The invention compounds are uniquely active in inhibiting MMP-13. Table 1 below presents inhibitory activity for invention compounds in the column labelled “MMP-13CD IC50, μM”. In the table, MMP-13CD refers to the catalytic domain of collagenase-3. It has been shown previously (Ye Qi-Zhuang, Hupe D., Johnson L., Current Medicinal Chemistry, 1996;3:407-418) that inhibitor activity against a catalytic domain of an MMP is predictive of the inhibitor activity against the respective full-length enzyme. Test compounds were evaluated at various concentrations in order to determine their respective IC50 values, the micromolar concentration of compound required to cause a 50% inhibition of the hydrolytic activity of the respective enzyme.

[2] = biological target: T1, MMP-9CD (Homo sapiens, UniProt P14780); experiment: thiopeptolide substrate hydrolysis assay, MMP-9CD; assay type: biochemical; settings: Table 2, catalytic domain
T1 construct: "MMP-9CD"
T1 sequence (P14780 with tags, fused parts or gaps DEL216-390 limits assumed): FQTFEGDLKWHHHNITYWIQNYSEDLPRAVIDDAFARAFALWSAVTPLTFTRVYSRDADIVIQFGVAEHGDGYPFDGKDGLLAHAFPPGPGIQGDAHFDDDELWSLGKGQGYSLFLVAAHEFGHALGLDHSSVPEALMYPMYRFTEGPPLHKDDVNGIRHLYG
Excerpt: as §1, §2, §3
(§4) The invention compounds are also selective inhibitors of MMP-13 versus other MMP enzymes, including versus MMP-7 and MMP-9. This is shown by comparing the IC50 data presented below in Table 2 in the columns labeled “MMP-7 IC50 (μM),” “MMP-9CD IC50 (μM),” and “MMP-13CD IC50 (μM),” respectively.

[3] = biological target: T2, MMP-7 (Homo sapiens, UniProt P09237); experiment: thiopeptolide substrate hydrolysis assay, MMP-7; assay type: biochemical; settings: Table 2
T2 sequence (P09237 95-267): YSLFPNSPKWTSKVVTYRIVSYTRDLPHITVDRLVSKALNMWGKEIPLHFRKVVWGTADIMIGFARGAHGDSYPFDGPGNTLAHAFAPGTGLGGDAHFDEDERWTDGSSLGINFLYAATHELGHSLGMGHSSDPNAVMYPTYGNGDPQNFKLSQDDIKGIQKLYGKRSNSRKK
Excerpt: as §1, §2, §3, §4

Structure (SMILES): O=C(OCc1ccc2c(c1)OCO2)c1ccc(C(=O)OCc2ccc3c(c2)OCO3)s1 [Example 1, Thiophene-2,5-dicarboxylic Acid di-1,3-benzodioxol-5-ylmethyl Ester]
- IC50 ([1]; Table 1): 8.6 µM
- melting point: 141 to 148 °C

Structure (SMILES): O=C(NCc1ccc2c(c1)OCO2)c1ccc(C(=O)NCc2ccc3c(c2)OCO3)s1 [Example 2, Thiophene-2,5-dicarboxylic Acid bis-[(1,3-benzodioxol-5-ylmethyl)-amide]]
- IC50 ([1]; Table 1): 0.85 µM
- IC50 [2]: 30 µM
- melting point: 207 to 209 °C
- IC50 [3]: 30 µM

Structure (SMILES): COc1cc(C(=O)OCc2ccc3c(c2)OCO3)sc1C(=O)OCc1ccc2c(c1)OCO2 [Example 3, 3-Methoxy-thiophene-2,5-dicarboxylic Acid di-1,3-benzodioxol-5-ylmethyl Ester]
- IC50 ([1]; Table 1): 3.6 µM
- melting point: 153 to 155 °C

Structure (SMILES): COc1cc(C(=O)NCc2ccc3c(c2)OCO3)sc1C(=O)NCc1ccc2c(c1)OCO2 [Example 4, 3-Methoxy-thiophene-2,5-dicarboxylic Acid bis-[(1,3-benzodioxol-5-ylmethyl)-amide]]
- IC50 ([1]; Table 1): 0.2 µM
- melting point: 191 to 195 °C
- IC50 [3]: 30 µM

Structure (SMILES): O=C(OCc1ccc2c(c1)OCO2)c1csc(C(=O)OCc2ccc3c(c2)OCO3)c1 [Example 5, Thiophene-2,4-dicarboxylic Acid di-1,3-benzodioxol-5-ylmethyl Ester]
- IC50 ([1]; Table 1): 0.45 µM
- IC50 [2]: 30 µM
- melting point: 164 to 165 °C
- IC50 [3]: 10 µM

Structure (SMILES): O=C(NCc1ccc2c(c1)OCO2)c1csc(C(=O)NCc2ccc3c(c2)OCO3)c1 [Example 6, Thiophene-2,4-dicarboxylic Acid bis-[(1,3-benzodioxol-5-ylmethyl)-amide]]
- IC50 ([1]; Table 1): 0.37 µM
- melting point: 174 to 175 °C
- IC50 [3]: 32 µM

Structure (SMILES): Cn1cc(C(=O)OCc2ccc3c(c2)OCO3)cc1C(=O)OCc1ccc2c(c1)OCO2 [Example 7, 1-Methyl-1H-pyrrole-2,4-dicarboxylic Acid di-1,3-benzodioxol-5-ylmethyl Ester]
- IC50 ([1]; Table 1): 0.97 µM
- melting point: 103 to 110 °C

Structure (SMILES): Cn1cc(C(=O)NCc2ccc3c(c2)OCO3)cc1C(=O)NCc1ccc2c(c1)OCO2 [Example 8, 1-Methyl-1H-pyrrole-2,4-dicarboxylic Acid bis-[(1,3-benzodioxol-5-ylmethyl)-amide]]
- IC50 ([1]; Table 1): 3 µM
- melting point: 147 to 152 °C

Structure (SMILES): Cc1sc(C(=O)OCc2ccccc2)cc1NC(=O)Cc1ccccc1 [Example 9, 5-Methyl-4-phenylacetylamino-thiophene-2-carboxylic Acid Benzyl Ester]
- IC50 ([1]; Table 1): 2.3 µM
- melting point: 173 to 174 °C

Structure (SMILES): Cc1sc(C(=O)NCc2ccccc2)cc1NC(=O)Cc1ccccc1 [Example 10, 5-Methyl-4-phenylacetylamino-thiophene-2-carboxylic Acid Benzylamide]
- IC50 ([1]; Table 1): 30 µM
- IC50 [2]: 30 µM

Structure (SMILES): Cc1sc(C(=O)OCc2ccc3c(c2)OCO3)cc1NC(=O)Cc1ccccc1 [Example 11, 5-Methyl-4-phenylacetylamino-thiophene-2-carboxylic Acid 1,3-benzodioxol-5-ylmethyl Ester]
- IC50 ([1]; Table 1): 0.19 µM

Structure (SMILES): Cc1sc(C(=O)NCc2ccc3c(c2)OCO3)cc1NC(=O)Cc1ccccc1 [Example 12, 5-Methyl-4-phenylacetylamino-thiophene-2-carboxylic Acid (1,3-benzodioxol-5-ylmethyl)-amide]
- IC50 ([1]; Table 1): 2.7 µM
- melting point: 138 to 140 °C

Structure (SMILES): Cc1sc(C(=O)OCc2ccccc2)cc1NC(=O)NCc1ccccc1 [Example 13, 4-(3-Benzyl-ureido)-5-methyl-thiophene-2-carboxylic Acid Benzyl Ester]
- IC50 ([1]; Table 1): 22 µM
- IC50 [2]: 30 µM
- melting point: 208 to 209 °C
- IC50 [3]: 30 µM

Structure (SMILES): Cc1sc(C(=O)NCc2ccccc2)cc1NC(=O)NCc1ccccc1 [Example 14, 4-(3-Benzyl-ureido)-5-methyl-thiophene-2-carboxylic Acid Benzylamide]
- IC50 ([1]; Table 1): 14 µM
- IC50 [2]: 99 µM

Structure (SMILES): Cc1sc(C(=O)OCc2ccc3c(c2)OCO3)cc1NC(=O)NCc1ccccc1 [Example 15a, 4-(3-Benzyl-ureido)-5-methyl-thiophene-2-carboxylic Acid 1,3-benzodioxol-5-ylmethyl Ester]
- IC50 ([1]; Table 2): 0.35 µM
- melting point: 216 to 217 °C

Structure (SMILES): Cc1sc(C(=O)NCc2ccc3c(c2)OCO3)cc1NC(=O)NCc1ccccc1 [Example 15b, 4-(3-Benzyl-ureido)-5-methyl-thiophene-2-carboxylic Acid (1,3-benzodioxol-5-ylmethyl)-amide]
- IC50 ([1]; Table 1): 0.92 µM
- IC50 [2]: 30 µM
- melting point: 194 to 195 °C
- IC50 [3]: 45 µM

Structure (SMILES): COC(=O)c1cc(NC(=O)NCc2ccccc2)c(C)s1 [Example 16, 5-Methyl-4-(3-benzyl-ureido)-thiophene-2-carboxylic Acid Methyl Ester]
- IC50 ([1]; Table 1): 2 µM
- melting point: 185 to 187 °C

Structure (SMILES): CNc1sc(C(=O)NCc2ccc(OC)cc2)cc1C(=O)NCc1ccc(C(=O)O)c(C)c1 [Example 21, 4-({[5-(4-Methoxy-benzylcarbamoyl)-2-methylamino-thiophene-3-carbonyl]-amino}-methyl)-2-methyl-benzoic Acid]
- IC50 ([1]; Table 1): 3.4 µM

Structure (SMILES): COc1cc(C(=O)NCc2ccccc2)sc1C(=O)NCc1ccccc1 [Example 22, 3-Methoxy-thiophene-2,5-dicarboxylic Acid Bis Benzylamide]
- IC50 ([1]; Table 1): ≥ 100 µM

Structure (SMILES): O=C(NCc1ccccc1)Nc1nnc(C(=O)OCc2ccccc2)s1 [Example 23, 5-(3-Benzyl-ureido)-1,3,4-thiadiazole-2-carboxylic Acid Benzyl Ester]
- IC50 ([1]; Table 1): 30 µM
- melting point: 188 to 192 °C
